Tests used:
[1] = target: T1, Solute carrier organic anion transporter family member 1B1 (Homo sapiens, UniProt Q9Y6L6); experiment: Inhibition of human liver OATP1B1 expressed in HEK293 Flp-In cells assessed as reduction in E17-betaG uptake at 20 uM by scintillation counting; settings: hek293, 20 µM
T1 sequence (Q9Y6L6 whole entry): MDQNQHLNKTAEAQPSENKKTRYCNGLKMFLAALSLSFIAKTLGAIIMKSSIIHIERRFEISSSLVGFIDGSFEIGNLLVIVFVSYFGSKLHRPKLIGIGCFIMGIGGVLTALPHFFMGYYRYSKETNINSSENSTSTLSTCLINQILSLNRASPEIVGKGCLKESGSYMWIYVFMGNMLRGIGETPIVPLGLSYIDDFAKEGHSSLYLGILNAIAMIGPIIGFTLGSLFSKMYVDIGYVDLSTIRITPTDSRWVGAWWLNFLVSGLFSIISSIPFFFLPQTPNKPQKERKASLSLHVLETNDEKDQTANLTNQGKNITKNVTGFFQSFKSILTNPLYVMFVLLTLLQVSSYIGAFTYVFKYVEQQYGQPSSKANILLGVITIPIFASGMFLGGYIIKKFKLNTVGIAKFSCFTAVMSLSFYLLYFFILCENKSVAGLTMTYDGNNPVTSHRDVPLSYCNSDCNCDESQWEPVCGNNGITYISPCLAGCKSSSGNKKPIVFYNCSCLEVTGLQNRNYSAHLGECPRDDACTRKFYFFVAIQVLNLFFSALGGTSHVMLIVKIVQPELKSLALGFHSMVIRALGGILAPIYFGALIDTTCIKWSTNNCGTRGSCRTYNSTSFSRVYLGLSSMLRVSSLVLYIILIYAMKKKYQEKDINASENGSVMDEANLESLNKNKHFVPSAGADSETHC

[2] = target: T2, Solute carrier organic anion transporter family member 1B3 (Homo sapiens, UniProt Q9NPD5); experiment: Inhibition of human liver OATP1B3 expressed in HEK293 Flp-In cells assessed as reduction in [3H]E17-betaG uptake at 20 uM incubated for 5 mins by scintillation counting; settings: hek293, 5 min
T2 sequence (Q9NPD5 whole entry): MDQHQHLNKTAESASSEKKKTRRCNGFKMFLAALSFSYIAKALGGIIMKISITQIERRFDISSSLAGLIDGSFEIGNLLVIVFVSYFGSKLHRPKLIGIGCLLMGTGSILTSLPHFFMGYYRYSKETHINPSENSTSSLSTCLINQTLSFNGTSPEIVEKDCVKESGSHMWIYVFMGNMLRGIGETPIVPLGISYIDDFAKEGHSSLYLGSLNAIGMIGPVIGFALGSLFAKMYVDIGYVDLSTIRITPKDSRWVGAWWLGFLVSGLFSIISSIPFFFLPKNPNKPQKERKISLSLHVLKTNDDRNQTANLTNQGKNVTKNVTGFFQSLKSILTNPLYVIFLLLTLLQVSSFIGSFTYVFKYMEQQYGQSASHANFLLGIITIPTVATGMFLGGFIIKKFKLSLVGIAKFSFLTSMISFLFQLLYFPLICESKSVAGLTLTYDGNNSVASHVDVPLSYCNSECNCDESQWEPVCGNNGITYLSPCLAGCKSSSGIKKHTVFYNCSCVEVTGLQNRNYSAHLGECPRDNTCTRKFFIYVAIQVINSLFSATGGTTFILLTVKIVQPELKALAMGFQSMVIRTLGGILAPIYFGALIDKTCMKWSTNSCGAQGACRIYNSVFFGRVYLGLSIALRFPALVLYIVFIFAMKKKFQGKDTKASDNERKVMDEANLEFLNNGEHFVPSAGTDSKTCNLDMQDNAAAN

[3] = target: T3, Solute carrier organic anion transporter family member 2B1 (Homo sapiens, UniProt O94956); experiment: Inhibition of human liver OATP2B1 expressed in HEK293 Flp-In cells assessed as reduction in [3H]E3S uptake at 20 uM incubated for 5 mins by scintillation counting; settings: hek293, 5 min
T3 sequence (O94956 whole entry): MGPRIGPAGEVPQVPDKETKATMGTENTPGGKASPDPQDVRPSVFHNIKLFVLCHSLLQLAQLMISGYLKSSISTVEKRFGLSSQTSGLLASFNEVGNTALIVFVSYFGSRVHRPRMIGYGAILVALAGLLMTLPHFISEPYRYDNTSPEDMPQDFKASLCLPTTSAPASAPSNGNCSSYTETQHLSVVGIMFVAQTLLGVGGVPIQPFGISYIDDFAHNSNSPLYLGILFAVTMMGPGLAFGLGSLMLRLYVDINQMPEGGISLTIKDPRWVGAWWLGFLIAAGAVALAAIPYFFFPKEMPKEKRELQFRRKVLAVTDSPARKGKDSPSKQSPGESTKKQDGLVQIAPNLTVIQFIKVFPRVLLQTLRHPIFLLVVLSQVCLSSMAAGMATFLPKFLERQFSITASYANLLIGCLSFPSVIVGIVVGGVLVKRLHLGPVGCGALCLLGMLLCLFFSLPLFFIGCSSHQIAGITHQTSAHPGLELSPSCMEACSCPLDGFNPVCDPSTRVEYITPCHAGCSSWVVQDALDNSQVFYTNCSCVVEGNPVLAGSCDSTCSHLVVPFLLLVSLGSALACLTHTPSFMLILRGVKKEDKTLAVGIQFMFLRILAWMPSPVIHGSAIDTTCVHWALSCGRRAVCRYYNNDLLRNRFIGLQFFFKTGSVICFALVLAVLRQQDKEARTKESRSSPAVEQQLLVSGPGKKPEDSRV

SMILES | INH [1] | INH [2] | INH [3]
CCOc1nc2cccc(C(=O)O)c2n1Cc1ccc(-c2ccccc2-c2nnn[nH]2)cc1 | 52.1% | 28.6% | 28.4%
CCCc1nc2c(C)cc(-c3nc4ccccc4n3C)cc2n1Cc1ccc(-c2ccccc2C(=O)O)cc1 | 109.4% | 91.5% | 94.9%
CCCCC(=O)N(Cc1ccc(-c2ccccc2-c2nnn[nH]2)cc1)[C@H](C(=O)O)C(C)C | 62.2% | 33.7% | 12.3%
CC(C)(C)NC(=O)[C@@H]1C[C@@H]2CCCC[C@@H]2CN1C[C@@H](O)[C@H](Cc1ccccc1)NC(=O)[C@H](CC(N)=O)NC(=O)c1ccc2ccccc2n1 | – | 6.6% | –
CC(C)CN(C[C@@H](O)[C@H](Cc1ccccc1)NC(=O)O[C@H]1CCOC1)S(=O)(=O)c1ccc(N)cc1 | 79.3% | 16.3% | -3.4%
CN1CCC[C@@H]1Cc1c[nH]c2ccc(CCS(=O)(=O)c3ccccc3)cc12 | 31.7% | 2.8% | 0.4%
CCCc1nn(C)c2c(=O)[nH]c(-c3cc(S(=O)(=O)N4CCN(C)CC4)ccc3OCC)nc12 | 22.2% | 30.8% | 45.9%
CCC[C@@]1(CCc2ccccc2)CC(O)=C([C@H](CC)c2cccc(NS(=O)(=O)c3ccc(C(F)(F)F)cn3)c2)C(=O)O1 | 89.5% | 109% | 99%
C=C[C@H]1C[N+]2(C)CC[C@H]1C[C@@H]2[C@@H](O)c1ccnc2ccc(OC)cc12 | -6.1% | 21% | -10.3%
COc1cc2c(cc1OC)CN(CCc1ccc(NC(=O)c3cccc4c(=O)c5cccc(OC)c5[nH]c34)cc1)CC2 | 94.4% | 37.4% | 67.2%
COc1ccc2c3c([nH]c2c1)[C@H](CC(C)C)N1C(=O)[C@H](CCC(=O)OC(C)(C)C)NC(=O)[C@@H]1C3 | 59.3% | 24.2% | 78.8%
Cc1ccc(N(CC(=O)O)CC(=O)O)c(OCCOc2cc(-c3c4cc(Cl)c(=O)cc-4oc4cc(O)c(Cl)cc34)ccc2N(CC(=O)O)CC(=O)O)c1 | – | 88.5% | –
CC(C)(C)NC(=O)[C@@H]1CN(Cc2cccnc2)CCN1C[C@@H](O)C[C@@H](Cc1ccccc1)C(=O)N[C@H]1c2ccccc2C[C@H]1O.O | 71.9% | 18.1% | 17.8%
CCOC(=O)[C@H](CCc1ccccc1)N[C@@H](C)C(=O)N1CCC[C@H]1C(=O)O | -7.5% | 4.1% | 19.7%
Cc1c(O)cccc1C(=O)N[C@@H](CSc1ccccc1)[C@H](O)CN1C[C@H]2CCCC[C@H]2C[C@H]1C(=O)NC(C)(C)C | 71.3% | 59.3% | 50%
COc1ccc(CCN(C)CCCC(C#N)(c2ccc(OC)c(OC)c2)C(C)C)cc1OC (stereo not given) | – | -9% | -62.6%
C[C@H]1O[C@H](O[C@H]2[C@H](O)[C@@H](O)[C@@H](O[C@H]3[C@H](O)[C@@H](O)C(O)O[C@@H]3CO)O[C@@H]2CO)[C@H](O)[C@@H](O)[C@@H]1N[C@H]1C=C(CO)[C@@H](O)[C@H](O)[C@H]1O (stereo not given in full) [ACARBOSE] | 14.9% | 17.7% | 0.1%
Nc1nc2c(ncn2COCCO)c(=O)[nH]1 [ACYCLOVIR] | 2.3% | -2% | -15.2%
Oc1ncnc2[nH]ncc12 [ALLOPURINOL] | -35.6% | 10.8% | 8.4%
NC12CC3CC(CC(C3)C1)C2 [AMANTADINE] | 26.4% | 10% | 17%

SMILES | INH [1] | INH [2] | INH [3]
Nc1ccc(C(=O)NCC(=O)O)cc1 [AMINOHIPPURIC ACID] | 30.1% | 23.7% | 27.4%
CN(C)CCC=C1c2ccccc2CCc2ccccc21 [AMITRIPTYLINE] | 10.5% | 22% | -8.9%
COc1ccc(CCN2CCC(Nc3nc4ccccc4n3Cc3ccc(F)cc3)CC2)cc1 [ASTEMIZOLE] | 22.3% | 24.4% | 58.9%
CNCCCN1c2ccccc2CCc2ccccc21 [DESIPRAMINE] | – | 3.2% | -4.4%
CN(CCOc1ccc(NS(C)(=O)=O)cc1)CCc1ccc(NS(C)(=O)=O)cc1 [DOFETILIDE] | 1% | 19.9% | –
Nc1nc(=O)n([C@@H]2CS[C@H](CO)O2)cc1F [EMTRICITABINE] | 6.4% | 17.1% | –
COc1cc([C@@H]2c3cc4c(cc3[C@@H](O[C@@H]3O[C@@H]5CO[C@@H](C)O[C@H]5[C@H](O)[C@H]3O)[C@H]3COC(=O)[C@H]23)OCO4)cc(OC)c1O [ETOPOSIDE] | – | – | 6.8%
CC(C)n1c(/C=C/C(O)CC(O)CC(=O)O)c(-c2ccc(F)cc2)c2ccccc21 (stereo not given) [FLUVASTATIN] | – | 76% | –
COc1ccc(Cl)cc1C(=O)NCCc1ccc(S(=O)(=O)NC(=O)NC2CCCCC2)cc1 [GLYBURIDE] | – | 49.3% | 77.4%
O=C1CN(/N=C/c2ccc([N+](=O)[O-])o2)C(=O)N1 [NITROFURANTOIN] | – | -1.5% | 23.1%
CCCCC1C(=O)N(c2ccccc2)N(c2ccccc2)C1=O [PHENYLBUTAZONE] | – | 17% | –
CCCN(CCC)S(=O)(=O)c1ccc(C(=O)O)cc1 [PROBENECID] | 35.2% | 22% | –
C=C[C@H]1C[N@@]2CC[C@H]1C[C@@H]2[C@@H](O)c1ccnc2ccc(OC)cc12 [QUINIDINE] | 43.3% | – | –
C=C[C@H]1C[N@@]2CC[C@H]1C[C@H]2[C@H](O)c1ccnc2ccc(OC)cc12 [QUININE] | 54% | – | –
COC(=O)[C@H]1[C@H]2C[C@@H]3c4[nH]c5cc(OC)ccc5c4CCN3C[C@H]2C[C@@H](OC(=O)c2cc(OC)c(OC)c(OC)c2)[C@@H]1OC [RESERPINE] | 67.2% | – | 72.3%
CCC(C)(C)C(=O)O[C@H]1C[C@@H](C)C=C2C=C[C@H](C)[C@H](CC[C@@H]3C[C@@H](O)CC(=O)O3)[C@H]21 [SIMVASTATIN] | – | 29.3% | 47.4%
Nc1ccc(S(=O)(=O)Nc2ccnn2-c2ccccc2)cc1 [SULFAPHENAZOLE] | – | 0.7% | 17.1%
CC/C(=C(\c1ccccc1)c1ccc(OCCN(C)C)cc1)c1ccccc1 [TAMOXIFEN] | – | 28.5% | 11%
C[C@]12CC[C@H]3[C@@H](CCC4=CC(=O)CC[C@@]43C)[C@@H]1CC[C@@H]2O [TESTOSTERONE] | – | – | -175.1%
